Laboratory results as given in doi:10.1101/2020.12.17.423306v1 (biorxiv, 2020).

What was measured:
[1] = biological target: T1, OsHSL1 (Oryza sativa, UniProt A0A7G1K9G4); assay: HPLC of TFT conversion; type: biochemical
T1 sequence (A0A7G1K9G4 1-350): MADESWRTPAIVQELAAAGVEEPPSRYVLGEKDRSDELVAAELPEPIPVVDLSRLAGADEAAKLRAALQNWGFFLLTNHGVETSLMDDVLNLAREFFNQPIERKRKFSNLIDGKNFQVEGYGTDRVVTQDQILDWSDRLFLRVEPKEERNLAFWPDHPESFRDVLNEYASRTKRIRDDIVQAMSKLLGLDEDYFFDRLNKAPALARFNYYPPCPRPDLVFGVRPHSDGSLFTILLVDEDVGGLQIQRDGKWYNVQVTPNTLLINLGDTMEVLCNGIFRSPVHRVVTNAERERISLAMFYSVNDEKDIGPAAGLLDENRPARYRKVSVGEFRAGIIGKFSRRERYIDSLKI

[2] = biological target: T2, HIS1 (Oryza sativa, UniProt A0A7G1K8F5); assay: HPLC of BBC-OH hydroxylation; type: biochemical
T2 sequence (A0A7G1K8F5 1-351): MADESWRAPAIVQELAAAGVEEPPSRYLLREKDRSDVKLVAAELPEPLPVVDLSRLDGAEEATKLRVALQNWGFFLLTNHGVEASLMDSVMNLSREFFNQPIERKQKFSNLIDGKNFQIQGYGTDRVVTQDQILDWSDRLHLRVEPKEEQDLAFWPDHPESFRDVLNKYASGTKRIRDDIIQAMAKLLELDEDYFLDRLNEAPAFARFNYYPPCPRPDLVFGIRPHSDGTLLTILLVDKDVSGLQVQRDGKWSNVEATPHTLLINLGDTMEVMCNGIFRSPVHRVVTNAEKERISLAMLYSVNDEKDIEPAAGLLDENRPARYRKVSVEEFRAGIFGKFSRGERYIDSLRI

Row | Compound | IC50 [1] [µM] | IC50 [2] [µM]
1 | CCOC(=O)C1CC(=O)C(=C(O)C2CC2)C(=O)C1 (centres unmarked) [TE, ethyl-(3-oxido-4-cyclopropionyl-5-oxo) oxo-3-cyclohexenecarboxylate] | ~125 | 
2 | CCC(=O)C1C(=O)CC(C(=O)O)CC1=O (centres unmarked) [prohexadione, 3,5-dioxo-4-propionylcyclohexanecarboxylic acid] |  | 50
